For 51 compounds, absorption maximum results are on record in the Deep4Chem optical property database.

This series can be described thus: solvent given as SMILES.

As for `COC(=O)c1nc(-c2cccc3ccccc23)oc1C`, the absorption maximum turned out to be 318 nm (in C1CCCCC1), 308 nm (in CC#N), 309 nm (in CCO) and 317 nm (in CCOC(C)=O).

In turn, `N#Cc1c(N2CCCCC2)cc(-c2cccc3ccccc23)c2c1-c1ccccc1C2=O` came in with an absorption maximum (in C1CCOC1) of 390 nm.

As for `COc1ccc(-c2c3nc(c(-c4ccc(OC)cc4)c4ccc([nH]4)c(-c4ccc(OC)cc4)c4nc(c(-c5ccc(OC)cc5)c5ccc2[nH]5)C=C4N2CCOCC2)C=C3)cc1`, the absorption maximum (in CS(C)=O) was 660 nm.

Turning to `c1ccc(-c2cc3cc4cccc5c(-c6ccccc6)cc6cc7cccc2c7c3c6c45)cc1`, the absorption maximum (in ClCCl) came to 439 nm.

With `CCOC(=O)c1c2c3c(ccc(Br)c3c3cc4ccccc4cc13)N(C)C2=O`, the absorption maximum (in CC#N) came out at 404 nm.

As for `O=C1NC(=O)C(c2c[nH]c3ccccc23)=C1c1c[nH]c2ccccc12`, the absorption maximum reads like this: (in C1CCOC1) 450 nm; (in CC#N) 446 nm; (in CC(C)OC(C)C) 443 nm; (in CCCCOCCCC) 445 nm; (in CCO) 460 nm; (in CCOC(C)=O) 445 nm. In addition, the absorption maximum is reported as 454 nm (in CN(C)C=O), 447 nm (in Cc1ccccc1) and 448 nm (in ClCCl).

Regarding `F[B-]1(F)n2c(Nc3cccc4cccnc34)ccc2C(c2ccccc2)=C2C=CC(Cl)=[N+]21`, the absorption maximum is, setting by setting: (in C1CCCCC1) 560 nm; (in CC#N) 547 nm; (in Cc1ccccc1) 561 nm; (in ClC(Cl)Cl) 555 nm.

In turn, `Clc1ccc(-c2nc(-c3ccccc3)sc2N(c2ccccc2)c2ccccc2)cc1` gave an absorption maximum (in ClC(Cl)Cl) of 366 nm.

With `Cc1cc(C)nc(N)n1`, the absorption maximum turned out to be 297 nm (in CCO), 296 nm (in CO) and 284 nm (in O).

Compound `O=C1C=C(Nc2ccc(F)c(F)c2)C(=O)c2ccccc21` had an absorption maximum (in CO) of 454 nm.

In turn, `COc1cn2cc(-c3ccc(C#N)cc3)[n-][n+]2c1` gave an absorption maximum (in ClCCl) of 378 nm.

Turning to `CNc1ccc2c(c1)C(=O)c1ccccc1-2`, the absorption maximum reads like this: (in C1CCCCC1) 474 nm; (in CC#N) 508 nm; (in CCO) 511 nm; (in c1ccccc1) 491 nm.

With `N#Cc1c(-n2c3ccccc3c3ccccc32)nc(-n2c3ccccc3c3ccccc32)c(C#N)c1-c1ccccc1`, where the note is “in c1cc(-c2cccc(-n3c4ccccc4c4ccccc43)c2)cc(-n2c3ccccc3c3ccccc32)c1”, the absorption maximum came out at 374 nm.

For `Cc1s[c+](N2CCOCC2)sc1-c1cc(I)cc(I)c1[O-]`, the absorption maximum (in C1CCOC1) came out at 425 nm, the absorption maximum (in CC#N) is given as 409 nm, the absorption maximum (in CO) is listed as 371 nm and the absorption maximum (in ClCCl) was determined as 413 nm.

Regarding `Fc1ccccc1-c1nc2sc3ccccc3c2s1`, the absorption maximum (in CS(C)=O) was determined as 344 nm.

Regarding `CC(C)(C)c1ccc2c(c1)c1cc(C(C)(C)C)ccc1n2-c1ccc(C#Cc2ccc3c4ccc(C#Cc5ccc(/C=C(/C#N)C(=O)O)cc5)cc4n(-c4ccc(C(F)(F)F)cc4)c3c2)cc1`, the absorption maximum (in ClCCl) was determined as 386 nm.

Turning to `Cc1cc2nc3[nH]c(=O)[nH]c(=O)c3nc2cc1C`, the absorption maximum (in CC#N) is given as 380 nm.

Consider `CC1=c2ccccc2=[N+]2C1=Cc1c3ccccc3c(-c3[nH]c4ccccc4c3C)n1[B-]2(F)F`, for which the absorption maximum (in ClCCl) came to 611 nm.

The compound `Oc1ccc(-c2nc(-c3ccccc3)c(-c3ccccc3)[nH]2)cc1` yielded an absorption maximum (in CO) of 295 nm.

Take `CC1CC=C(c2ccc(-c3ccc(C#N)s3)s2)CC1` (stereo not given): the absorption maximum is 357 nm (in C1CCOC1); 355 nm (in CC#N); 356 nm (in CCCCCC); 358 nm (in CCO); 366 nm (in OCCOCCO); 363 nm (in c1ccncc1).

For the compound `c1ccc(-c2nnc(-c3cc(-n4c5ccccc5c5ccccc54)c(-n4c5ccccc5c5ccccc54)cc3-c3nnc(-c4ccccc4)o3)o2)cc1`, the absorption maximum (in ClCCl) was 361 nm.

`CC/[NH+]=c1\cc2oc3cc(NCCC(=O)O)c4ccccc4c3nc-2cc1C`: the absorption maximum reads like this: (in CCO) 590 nm; (in O) 580 nm.

In the case of `FC(F)(F)c1ccc(C2=Cc3ccccc3[Si]2(c2ccccc2)c2ccccc2)cc1`, under “in ClCCl”, the absorption maximum is recorded as 336 nm.

Compound `Clc1nc(Nc2ccccc2)nc(Nc2ccc3c4cccc5cccc(c6cccc2c63)c54)n1` displayed an absorption maximum (in C1COCCO1) of 444 nm, an absorption maximum (in CC#N) of 442 nm, an absorption maximum (in CCCCOCCCC) of 443 nm and an absorption maximum (in CCOC(C)=O) of 442 nm.

Regarding `CCCC1(CCC)c2cc(-c3ccco3)ccc2-c2ccc(-c3ccco3)cc21`, the absorption maximum (in C1CCCCC1) amounted to 364 nm.

As to `FC(F)(F)c1ccc(-c2ccc(-c3cc(-c4ccccn4)nc(-c4ccccn4)c3)cc2)cc1`, for the setting “in ClCCl”, the absorption maximum is listed as 289 nm.

Regarding `c1ccc2[nH]c(-c3cc(-c4nc5ccccc5[nH]4)cc(-c4nc5ccccc5[nH]4)c3)nc2c1`, the absorption maximum (in CS(C)=O) is 316 nm.

For the compound `N#Cc1c(N2CCCCC2)cc(-c2ccc3c(c2)OCO3)c2c1-c1cccc3cccc-2c13`, the absorption maximum (in O) was found to be 429 nm.

`COc1ccc(-c2cc(-c3ccc(C)cc3)c(C#N)c(OC)n2)cc1`: the absorption maximum is, setting by setting: (in C1CCOC1) 339 nm; (in CC#N) 338 nm; (in CC(C)=O) 340 nm; (in CCCCCC) 334 nm; (in CCOC(C)=O) 335 nm; (in CN(C)C=O) 343 nm. Further, the absorption maximum came out at 338 nm (in CO), 344 nm (in CS(C)=O) and 341 nm (in ClC(Cl)Cl).

Regarding `Cc1ccc(C#Cc2ccc3ccc(=O)oc3c2)cc1`, the absorption maximum (in CC#N) turned out to be 304 nm.

As for `CC(C)(C)c1ccc2c(c1)c1cc(C(C)(C)C)ccc1n2-c1ccc(C#Cc2ccc3c4ccc(C#Cc5ccc(C=C(C#N)C#N)cc5)cc4n(-c4ccc(C(F)(F)F)cc4)c3c2)cc1`, the absorption maximum (in ClCCl) is reported as 355 nm.

With `c1ccc(C2(c3ccccc3)c3ccccc3N(c3ccc(-c4nc([C@]56CC7CC(C[C@@H](C7)C5)C6)nc([C@]56C[C@H]7C[C@@H](C[C@H](C7)C5)C6)n4)cc3)c3ccccc32)cc1`, the absorption maximum (in Cc1ccccc1) is reported as 367.02 nm.

`CCOc1ccc2c(-c3nc(-c4ccccc4)no3)cc(=O)oc2c1` had an absorption maximum (in CCO) of 388 nm and an absorption maximum (in ClC(Cl)Cl) of 392 nm.

Take `c1ccc2c(-n3cnc4ccccc43)cccc2c1`: the absorption maximum runs as follows: (in C1CCCCC1) 283 nm; (in C1CCOC1) 282 nm; (in CC#N) 286 nm; (in CCO) 284 nm; (in CCOC(C)=O) 283 nm; (in CCOCC) 284 nm. For the same compound, the absorption maximum was determined as 284 nm (in CO), 282 nm (in Cc1ccccc1) and 285 nm (in ClC(Cl)Cl).

Take `C[Si](C)(C)c1ccc(-c2nc3ccccc3n2-c2ccccc2)cc1`: the absorption maximum (in ClCCl) came to 301 nm.

`N#Cc1c(C#N)c2ccccc2c2ccccc12` registered an absorption maximum (in ClC(Cl)Cl) of 346 nm.

`Cc1cc(C)c(C2=C3C=C(/C=C/C(=O)OC(C)(C)C)C=[N+]3[B-](F)(F)n3c2ccc3N2CCOCC2)c(C)c1`: the absorption maximum was determined as 480 nm (in CC#N); 532 nm (in CCCCCC); 485 nm (in CN(C)C=O); 483 nm (in CO); 525 nm (in Cc1ccccc1); 497 nm (in ClCCl).

`CC(C)(C)c1cc2c(c(C(C)(C)C)c1)O[B-](F)(F)[n+]1c-2nc(-c2ccccc2)c2cc(Cl)ccc21` came in with an absorption maximum (in Cc1ccccc1) of 420 nm.

On to `Cc1c2c(c(C)c3ccccc13)C1=C2C=CC2Nc3ccccc3NC12` (stereo not given), for which the absorption maximum (in ClC(Cl)Cl) amounted to 437 nm.

The compound `C(#Cc1ccccc1)C(C#Cc1ccccc1)=c1c2ccccc2c(=C(C#Cc2ccccc2)C#Cc2ccccc2)c2ccccc12` displayed an absorption maximum (in ClC(Cl)Cl) of 540 nm.

Under “in ClCCl”, `c1ccc(C2=C(c3ccccc3)c3cccc4c3c(cc3nc5c(-c6ccccc6)ccc(-c6ccccc6)c5nc34)O2)cc1` returned an absorption maximum of 503 nm.

For `c1ccc(-c2nc(-c3ccc(-c4nc(-c5ccccc5)c(-c5ccccc5)o4)cc3)oc2-c2ccccc2)cc1`, the absorption maximum (in C1COCCO1) is recorded as 358 nm.

Under “in Cc1ccccc1”, `COc1ccc(C2=C3C(C)=CC(C=Cc4ccc(C(=O)OC5C[C@H]6CCC5(C)C6(C)C)cc4)=[N+]3[B-](F)(F)n3c(C)cc(C)c32)cc1` (stereo not given in full) had an absorption maximum of 568 nm.

The compound `CCCCCCOc1cc(/C=C/c2cc(OCCCCCC)c(/C=C/c3cc(OCCCCCC)c(C=C4C(=O)c5ccccc5C4=O)cc3OCCCCCC)cc2OCCCCCC)c(OCCCCCC)cc1C=C1C(=O)c2ccccc2C1=O` had an absorption maximum (in ClCCl) of 550 nm.

`CCOC(=O)c1csc2[n+]1[B-](F)(F)OC(c1ccc(N(C)C)cc1)=N2`: the absorption maximum is on record as 404 nm (in C1CCOC1), 405 nm (in CC#N), 406 nm (in Cc1ccccc1) and 412 nm (in ClCCl).

Consider `CCCCN(CCCC)c1ccc(C#Cc2cc(C#Cc3ccc([N+](=O)[O-])cc3)c(C#Cc3ccc([N+](=O)[O-])cc3)cc2C#Cc2ccc(N(CCCC)CCCC)cc2)cc1`, for which the absorption maximum (in ClCCl) was 417 nm.

Where the note is “in ClCCl”, `CN(C)c1ccc(C2=Cc3ccccc3P2(=O)c2ccccc2)cc1` (stereo not given) had an absorption maximum of 413 nm.

As to `CNc1ccc2c(c1)-c1ccccc1C2=O`, the absorption maximum reads like this: (in C1CCCCC1) 389 nm; (in CC#N) 424 nm; (in CCO) 436 nm; (in c1ccccc1) 409 nm.

As for `CCCCCCOc1ccc2c(c1)-c1cc3c(cc1[Si]2(C)C)-c1ccccc1[Si]3(C)C`, the absorption maximum (in ClCCl) worked out at 327 nm.

Take `c1ccc2c(c1)-c1ccccc1[Si]21c2ccccc2-c2cc3c(cc21)-c1ccccc1[Si]31c2ccccc2-c2ccccc21`: the absorption maximum (in ClCCl) turned out to be 329 nm.

On to `c1ccc2c(c1)CC1(C2)c2cc(N3c4ccccc4Sc4ccccc43)ccc2-c2ccc(N3c4ccccc4Sc4ccccc43)cc21`, for which, where the note is “in Cc1ccccc1”, the absorption maximum is 310 nm.
